Data on five compounds can be found in ChEMBL document CHEMBL1142751, “Synthesis and biological activity of mustard derivatives of combretastatins” (Bioorg Med Chem Lett, 2005).

Broadly, the IC50 is the concentration at which inhibition is half-maximal.

This test has as its system SH-SY5Y. Nature of the test: Inhibitory concentration against Human SH-SY5Y neuroblastoma cells. Type of test: functional, cell-based.

Each structure is given as a SMILES string. Some results are limits rather than exact numbers.

`COc1ccc(/C=C\c2cc(OC)c(OC)c(OC)c2)cc1OCCN(CCCl)CCCl` showed a 50% inhibitory concentration (IC50) of 230 nM.
The result for `COc1ccc(/C=C\c2cc(OC)c(OC)c(OC)c2)cc1OC(=O)CCCc1ccc(N(CCCl)CCCl)cc1` reads 0.64 nM; that for `COc1ccc(/C=C\c2cc(OC)c(OC)c(OC)c2)cc1N(CCO)CCO`, greater than 10000 nM; that for `COc1ccc(/C=C\c2cc(OC)c(OC)c(OC)c2)cc1N(CCCl)CCCl`, 860 nM.
Consider `COc1ccc(/C=C\c2cc(OC)c(OC)c(OC)c2)cc1O` [COMBRETASTATIN A4], for which the IC50 amounted to 1.5 nM.
